Data: the NIST ThermoML archive (doi:10.1016/j.jct.2015.12.028)
± gives the expanded uncertainty stated by the source.

Conditions: Liquid, light scattering

CCCCCC(=O)OCC [ethyl hexanoate]
Conditions | speed of sound [m/s]
291.92 K, 7170 kPa | 1273.2 ± 13
292.04 K, 8640 kPa | 1284 ± 13
292.14 K, 10010 kPa | 1290.3 ± 13
293.41 K, 5690 kPa | 1255 ± 13
293.44 K, 4180 kPa | 1247.7 ± 13
294.64 K, 100 kPa | 1224.2 ± 12
294.64 K, 1100 kPa | 1230.1 ± 12
294.84 K, 2620 kPa | 1239 ± 12
301.5 K, 2670 kPa | 1205.7 ± 12
301.55 K, 1070 kPa | 1195.5 ± 12
301.56 K, 4130 kPa | 1214.4 ± 12
301.58 K, 7090 kPa | 1236.9 ± 12
301.6 K, 5650 kPa | 1225.7 ± 12
301.63 K, 8670 kPa | 1245.9 ± 13
301.73 K, 10030 kPa | 1258.6 ± 13
302.55 K, 100 kPa | 1189.8 ± 12
313.14 K, 9980 kPa | 1220.5 ± 12
313.24 K, 4030 kPa | 1185 ± 12
313.24 K, 8510 kPa | 1215.6 ± 12
313.25 K, 7000 kPa | 1205.4 ± 12
313.26 K, 5550 kPa | 1196.2 ± 12
313.28 K, 2510 kPa | 1175.2 ± 12
313.3 K, 100 kPa | 1155.3 ± 12
313.3 K, 1020 kPa | 1160.8 ± 12
323.18 K, 10000 kPa | 1187.7 ± 12
323.28 K, 8470 kPa | 1179.1 ± 12
323.31 K, 2480 kPa | 1142.4 ± 11
323.31 K, 4010 kPa | 1149.9 ± 12
323.33 K, 6950 kPa | 1170 ± 12
323.35 K, 5480 kPa | 1162 ± 12
323.36 K, 100 kPa | 1120.8 ± 11
323.36 K, 1020 kPa | 1128.5 ± 11
332.94 K, 8560 kPa | 1145.7 ± 12
332.97 K, 6950 kPa | 1135.6 ± 11
332.97 K, 10050 kPa | 1156.4 ± 12
332.99 K, 100 kPa | 1086.3 ± 11
332.99 K, 1060 kPa | 1090.1 ± 11
333.01 K, 2560 kPa | 1105.9 ± 11
333.04 K, 5580 kPa | 1125.1 ± 11
333.07 K, 4030 kPa | 1115.9 ± 11
342.65 K, 2510 kPa | 1072.2 ± 11
342.67 K, 100 kPa | 1051.7 ± 11
342.67 K, 1000 kPa | 1054.8 ± 11
342.69 K, 3940 kPa | 1082.2 ± 11
342.71 K, 5500 kPa | 1094.5 ± 11
342.72 K, 8500 kPa | 1109.7 ± 11
342.74 K, 7030 kPa | 1099.1 ± 11
342.82 K, 9990 kPa | 1124.8 ± 11
352.33 K, 100 kPa | 1017.1 ± 10
352.33 K, 1100 kPa | 1023 ± 10
352.33 K, 2540 kPa | 1038.4 ± 10
352.35 K, 4000 kPa | 1050.4 ± 11
352.41 K, 5530 kPa | 1061 ± 11
352.42 K, 7020 kPa | 1068.2 ± 11
352.43 K, 8490 kPa | 1080.4 ± 11
352.73 K, 10060 kPa | 1093.6 ± 11
362.56 K, 100 kPa | 982.46 ± 9.9
362.56 K, 1000 kPa | 987.04 ± 9.9
362.56 K, 4010 kPa | 1015.1 ± 10
362.58 K, 8530 kPa | 1045.7 ± 11
362.6 K, 7060 kPa | 1033.4 ± 10
362.62 K, 5540 kPa | 1026 ± 10
362.64 K, 2530 kPa | 1000.9 ± 10
362.68 K, 10100 kPa | 1061.2 ± 11
372.53 K, 2500 kPa | 968.37 ± 9.7
372.54 K, 100 kPa | 947.78 ± 9.5
372.54 K, 1040 kPa | 952.55 ± 9.6
372.55 K, 7020 kPa | 1007.7 ± 10
372.56 K, 8530 kPa | 1016.3 ± 10
372.57 K, 5560 kPa | 998.43 ± 10
372.59 K, 4050 kPa | 985.39 ± 9.9
372.86 K, 9900 kPa | 1029.5 ± 10
382.71 K, 8540 kPa | 980 ± 9.9
382.73 K, 7020 kPa | 971.25 ± 9.8
382.74 K, 100 kPa | 913.07 ± 9.2
382.74 K, 1000 kPa | 922.72 ± 9.3
382.74 K, 5540 kPa | 962.72 ± 9.7
382.75 K, 4010 kPa | 952.21 ± 9.6
382.76 K, 2560 kPa | 934.6 ± 9.4
382.91 K, 9900 kPa | 997.44 ± 10
392.4 K, 5520 kPa | 933.47 ± 9.4
392.41 K, 7010 kPa | 940.67 ± 9.5
392.42 K, 8480 kPa | 949.6 ± 9.6
392.47 K, 100 kPa | 878.33 ± 8.8
392.47 K, 1030 kPa | 884.09 ± 8.9
392.47 K, 4000 kPa | 919.08 ± 9.2
392.51 K, 2490 kPa | 902.62 ± 9.1
392.92 K, 9950 kPa | 966.97 ± 9.8
402 K, 6970 kPa | 908.77 ± 9.2
402.03 K, 100 kPa | 843.55 ± 8.5
402.03 K, 1040 kPa | 854.91 ± 8.6
402.06 K, 2470 kPa | 868.02 ± 8.7
402.06 K, 4030 kPa | 883.34 ± 8.9
402.08 K, 8510 kPa | 919.03 ± 9.3
402.1 K, 5510 kPa | 899.47 ± 9.1
402.68 K, 10070 kPa | 936.79 ± 9.4
412.72 K, 100 kPa | 808.74 ± 8.2
412.72 K, 1040 kPa | 815.66 ± 8.2
412.8 K, 2570 kPa | 833.03 ± 8.4
412.88 K, 5600 kPa | 865.88 ± 8.7
412.88 K, 7020 kPa | 871.35 ± 8.8
412.89 K, 8470 kPa | 886.33 ± 8.9
412.91 K, 4020 kPa | 848.61 ± 8.6
412.99 K, 10030 kPa | 903.23 ± 9.1
423.69 K, 9950 kPa | 868.97 ± 8.8
423.99 K, 8470 kPa | 850.59 ± 8.6
424.01 K, 6980 kPa | 840.66 ± 8.5
424.04 K, 5530 kPa | 826.28 ± 8.3
424.11 K, 2540 kPa | 796.64 ± 8
424.11 K, 4010 kPa | 811.39 ± 8.2
424.14 K, 100 kPa | 773.9 ± 7.8
424.14 K, 1010 kPa | 774.99 ± 7.8
432.74 K, 8510 kPa | 826.01 ± 8.3
432.77 K, 7030 kPa | 813.37 ± 8.2
432.78 K, 5380 kPa | 798.35 ± 8.1
432.84 K, 9890 kPa | 842.12 ± 8.5
432.92 K, 3990 kPa | 780.75 ± 7.9
433.17 K, 100 kPa | 739.02 ± 7.5
433.17 K, 1030 kPa | 746.97 ± 7.5
433.17 K, 2510 kPa | 762.64 ± 7.7
442.85 K, 5610 kPa | 765.41 ± 7.7
442.88 K, 4100 kPa | 748.87 ± 7.6
442.9 K, 930 kPa | 715.97 ± 7.2
442.9 K, 2480 kPa | 729.4 ± 7.4
442.91 K, 6990 kPa | 777.33 ± 7.9
442.92 K, 8480 kPa | 791.24 ± 8
452.58 K, 5540 kPa | 735.89 ± 7.5
452.61 K, 7110 kPa | 747.91 ± 7.6
452.63 K, 8380 kPa | 764.36 ± 7.7
452.65 K, 4080 kPa | 717.86 ± 7.3
452.91 K, 2540 kPa | 695.59 ± 7
452.92 K, 1040 kPa | 677.79 ± 6.9
452.93 K, 10000 kPa | 781.61 ± 7.9
462.7 K, 7080 kPa | 715.1 ± 7.2
462.71 K, 4130 kPa | 682.75 ± 6.9
462.71 K, 8400 kPa | 730.25 ± 7.4
462.72 K, 5530 kPa | 700.28 ± 7.1
462.73 K, 2510 kPa | 660.98 ± 6.7
462.91 K, 10060 kPa | 751.22 ± 7.6
462.97 K, 960 kPa | 644.49 ± 6.5
471.93 K, 7050 kPa | 686.17 ± 7
471.94 K, 5520 kPa | 670.94 ± 6.8
471.95 K, 8260 kPa | 703.27 ± 7.1
472.03 K, 3960 kPa | 653.08 ± 6.6
472.05 K, 10050 kPa | 723.5 ± 7.3
472.29 K, 2600 kPa | 630.72 ± 6.4
472.41 K, 950 kPa | 612.74 ± 6.2

Conditions | speed of sound [m/s]
294.37 K | 1220.1 ± 12
301.55 K | 1191 ± 12
313.34 K | 1152.7 ± 12
324.26 K | 1115.1 ± 11
333.16 K | 1077.6 ± 11
343.2 K | 1046.1 ± 10
353.08 K | 1010 ± 10
363.12 K | 975 ± 9.8
373.14 K | 942 ± 9.5
383.76 K | 905.4 ± 9.1
393.3 K | 870.1 ± 8.8
402.64 K | 834.9 ± 8.4
413.59 K | 800.8 ± 8.1
423.96 K | 764 ± 7.7
433.99 K | 730.3 ± 7.4
443.55 K | 697.6 ± 7
452.9 K | 661 ± 6.7
463.1 K | 628.8 ± 6.4
473.82 K | 592.4 ± 6
